The assay concerns L-alanine dehydrogenase from Sporolactobacillus sp. 78-3 (FERM BP-2517). The assay can be described thus: Km-Value of L-alanine dehydrogenase (reductive amination, decrease of NADH at 340 nm). The assay is classed as biochemical. The conditions noted are these: purified enzyme. The procedure: Enzyme activity is measured by the following assay method:
The reaction mixture, 1 ml, in a 1 ml quartz cell is pre-incubated at 37° C. for 5 mins. Dilute enzyme solution, 0.02 ml with 50 mM triethanolamine buffer (pH 8.5) is added thereto and the mixture is stirred to initiate the reaction. Decrease of NADH is measured photometrically at 340 nm during the reaction. Enzyme activity is calculated by the following equation on the linear part of the curve: [formula] wherein T=reaction time (min.); X=dilution ratio.

Experimental findings from patent US5116748A, “Process for the production of L-alanine dehydrogenase from 78-3 FERM BP-2517” (Toyo Jozo Kabushiki Kaisha, priority 1988, dated 1992) are described below.

Where two headings read alike, the source gives them in different places.

For orientation: Km means the concentration of substrate that gives half-maximal velocity. With `NC(=O)C1=CN([C@@H]2O[C@H](COP(=O)(O)OP(=O)(O)OC[C@H]3O[C@@H](n4cnc5c(N)ncnc54)[C@H](O)[C@@H]3O)[C@@H](O)[C@H]2O)C=CC1` [NADH], where the note is “coenzyme NADH, read-out: Km-Value (NADH)”, the Km was 0.011 mM.

For the compound `N` [NH4^+], the Km (substrate NH4+, read-out: Km-Value (NH4+)) came out at 20 mM.
